Measurements taken from paper PMC9354408, “How to Achieve Sufficient Endogenous Insulin Suppression in Euglycemic Clamps Assessing the Pharmacokinetics and Pharmacodynamics of Long-Acting Insulin Preparations Employing Healthy Volunteers” (Frontiers in Pharmacology, 2022).

Legend:
Type in all cases: in vivo, healthy Chinese men and women
[1] = Manual euglycemic glucose clamp, glucose infusion rate (pharmacodynamics); settings: for AUCGIR,0-24h / GIRmax / tGIRmax: 0.5 IU/kg s.c., arithmetic mean ± SD; for AUCGIR,0-12h: single 0.5 IU/kg s.c. IGlar (LY2963016 or Lantus), clamp up to 24 h, target BG 0.28 mmol/L below baseline, median (interquartile range); for GIRmax after correction / AUCGIR, 0–24 h after correction: corrected using the corresponding exogenous IGlar parameter as a covariant; for AUCGIR, 0–24 h after correction: first mention
Procedure: (§1) All enrolled subjects underwent a euglycemic glucose clamp lasting for up to 24 h after a 0.5-IU/kg IGlar injection. All the participants were restrained from strenuous exercise, smoking, alcohol, or caffeinated drinks. Since a C-peptide suppression of more than 50% is widely recognized as sufficient endogenous insulin suppression, the subjects fell into two groups based on the ratio of C-peptide reduction from baseline (group A: C-peptide reduction <50%; group B: C-peptide reduction ≥50%). The data were collected from a clinical trial (NCT03555305) ([Liu et al., 2021]), which was conducted to evaluate the pharmacokinetic and pharmacodynamic equivalence of an IGlar biosimilar (LY2963016) manufactured by Eli Lilly to Lantus manufactured by Sanofi.
At the dosing visit, an overnight fast of at least 8 h must be guaranteed prior to IGlar administration. Two catheters were placed into the antecubital vein and the hand vein, respectively, for 20% dextrose infusing and blood sampling correspondingly. The baseline of BG was defined as the mean of three BG measurements at 30, 20, and 10 min prior to the IGlar administration. A single dose (0.5 IU/kg) of Lantus or LY2963016 was subcutaneously injected into a lifted abdominal skinfold. A 0.1-ml blood sample was collected from the hand vein which was continuously heated in a warm blanket (55 ± 5 °C) at an interval of 10–20 min for the analysis of BG levels. A variable GIR was frequently adjusted and timely recorded to maintain the BG around 0.28 mmol/L below the baseline and represent the pharmacodynamic activity of IGlar, respectively.
The BG levels were immediately determined in whole blood at the bedside by a glucose analyzer (Biosen C_line, EKF Diagnostics, Barleben, Germany) with the glucose oxidase method. The measuring range of this method was 0.5–50 mmol/L with a high precision of 1.5%. The clamp would end if no exogenous glucose infusion was required for at least 0.5 h.
Individual GIR values were smoothed by a locally weighted scatterplot smoothing technique. The maximum GIR (GIRmax) and the total amount of glucose infused throughout the clamp (AUCGIR, 0–24 h) were defined as primary PD parameters. Secondary PD parameters included time to GIRmax (tGIRmax) and AUC of GIR from 0 to 12 h (AUCGIR, 0–12 h).

[2] = Pharmacokinetics of exogenous IGlar (total insulin radioimmunoassay, C-peptide corrected by Owens's method); settings: 0.5 IU/kg s.c., arithmetic mean ± SD; for AUCIGlar,0-12h / AUCIGlar,0-24h / IGlarmax: serum, C-peptide corrected
Procedure: as §1
(§2) A 6-ml blood sample for analysis of C-peptide and total insulin levels were collected before drug administration (0.5 and 0 h before dosing) and every 0.5–3 h throughout the clamp as described before ([Liu et al., 2021]). The whole blood sample was drawn into a serum tube and gently mixed by inversion (>5 times). Then the sample was required to clot for 30–60 min at room temperature. The tube was centrifuged at 1,500–2000g for 15–20 min to separate serum. The serum was transferred without red blood cells contained, and frozen at -70 °C until shipment for analysis. The concentration of total insulin was determined by a validated radioimmunoassay method ([Kuerzel et al., 2003]; [Shen et al., 2019]) with a quantification range of 50–2000 pmol/L at WuXi AppTec Co., Ltd. in Shanghai, China. The exogenous IGlar level was calculated by subtracting the endogenous insulin based on C-peptide using Owens’s method ([Owens, 1986]). The C-peptide concentration was analyzed by a direct chemiluminescent technology in Covance Laboratory (Shanghai, China) with a quantification range of 0.07–352 ng/ml.
(§3) If a measured value of total insulin or C-peptide was below the lower limit of quantification, it would be included in statistics as half of the limit. A calculated value of IGlar below zero after C-peptide correction would be excluded from the PK statistics. The primary PK parameters included the area under the curve (AUC) of IGlar from time 0–24 h (AUCIGlar, 0–24 h) and the maximum IGlar (IGlarmax) corrected by C-peptide. Other PK parameters included AUC of IGlar from 0 to 12 h (AUCIGlar, 0–12 h) and time to IGlarmax (tIGlarmax).

[3] = Serum total insulin during clamp (radioimmunoassay); set-up: AUCTotal insulin,0-12h / AUCTotal insulin,0-24h: unit not given here; settings: 0.5 IU/kg s.c., arithmetic mean ± SD; for AUCTotal insulin,0-12h / AUCTotal insulin,0-24h: serum, before C-peptide correction
Procedure: as §1, §2, §3

[4] = system: endogenous insulin secretion; test: Serum C-peptide during clamp (endogenous insulin suppression, direct chemiluminescence); settings: arithmetic mean ± SD; for Mean postdose C-peptide: after 0.5 IU/kg s.c. IGlar; for C-peptide reduction: postdose versus baseline
Procedure: as §1, §2, §3

[5] = group A (C-peptide reduction <50%), N = 52
[6] = group B (C-peptide reduction >=50%), N = 26

In the case of insulin glargine [IGlar], the “AUCGIR,0-24h” value [1, 5] is reported as 2,415 ± 953 mg/kg, the GIRmax [1, 5] is reported as 2.82 ± 1.06 mg/kg/min and the tGIRmax [1, 5] is reported as 666 ± 202 min. For the same substance, the “AUCGIR,0-12h” value [1, 5] was 989 (642) mg/kg, the GIRmax after correction ([1]; group A) was 2.96 mg/kg/min and the “AUCGIR, 0–24 h after correction” value ([1]; group A) was 2,513 mg/kg. For the same substance, the “AUCGIR,0-24h” value [1, 6] was 2,891 ± 908 mg/kg, the GIRmax [1, 6] was 3.36 ± 1.07 mg/kg/min and the tGIRmax [1, 6] was 678 ± 180 min. The “AUCGIR,0-12h” value [1, 6] was 1,320 (615) mg/kg, the GIRmax after correction ([1]; group B) was 3.09 mg/kg/min and the “AUCGIR, 0–24 h after correction” value ([1]; group B) was 2,697 mg/kg. The tIGlarmax [2, 5] was 11.7 ± 3.97 h, the “AUCIGlar,0-12h” value [2, 5] was 1,099 ± 342 pmol/L×h and the “AUCIGlar,0-24h” value [2, 5] was 2,194 ± 597 pmol/L×h. The IGlarmax [2, 5] was 122.7 ± 37.7 pmol/L, the tIGlarmax [2, 6] was 11.6 ± 2.66 h and the “AUCIGlar,0-12h” value [2, 6] was 1,295 ± 360 pmol/L×h. The “AUCIGlar,0-24h” value [2, 6] was 2,534 ± 597 pmol/L×h, the IGlarmax [2, 6] was 147.7 ± 42.5 pmol/L and the Maximum total insulin [3, 5] was 151.8 ± 42.0 pmol/L. The “Time of maximum total insulin” value [3, 5] was 10.9 ± 5.55 h, the “AUCTotal insulin,0-12h” value [3, 5] was 1,444 ± 398 and the “AUCTotal insulin,0-24h” value [3, 5] was 2,853 ± 713. The Maximum total insulin [3, 6] was 162.1 ± 41.9 pmol/L, the “Time of maximum total insulin” value [3, 6] was 10.8 ± 3.77 h and the “AUCTotal insulin,0-12h” value [3, 6] was 1,510 ± 368. The “AUCTotal insulin,0-24h” value [3, 6] was 2,958 ± 626, the “Mean postdose C-peptide” value [4, 5] was 201 ± 74 pmol/L and the C-peptide reduction ([4]; group A (defined by C-peptide reduction <50%), N = 52) was 39.5 ± 6.7%. The “Mean postdose C-peptide” value [4, 6] was 134 ± 50 pmol/L and the C-peptide reduction ([4]; group B (defined by C-peptide reduction >=50%), N = 26) was 57.4 ± 5.5%.
